Assay results taken from ChEMBL document CHEMBL1201862, “PubChem BioAssay data set” (2004).
Calls of active or inactive are those of the source.

What was measured:
[1] = molecular target: T1, Polyadenylate-binding protein 1 (Homo sapiens, UniProt P11940); test: MLLE domain peptide-binding blockers, IC50 – biochemical, fluorescence polarization, FITC-PAM2 peptide, dose response (AID 602259); type: functional; conditions: read-out: IC50_Mean
[2] = molecular target: T1, Polyadenylate-binding protein 1; test: MLLE binding blockers, Cy5 peptide tracer – biochemical, fluorescence polarization, Cy5-PAM2 peptide, secondary, miRNA deadenylation inhibitor project, dose response (AID 602260); type: functional; conditions: read-out: IC50_Mean
[3] = test system: Streptococcus; test: GAS UMAA2166 growth inhibition – luminescence, BacTiterGlo, counter-screen for streptokinase expression inhibitor project, dose response (AID 1915); type: functional, organism-based;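 also: potency for reduction of bacterial viability or growth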
[4] = molecular target: T2, Streptokinase A (Streptococcus pyogenes serotype M1, UniProt P10520); test: viability-normalized secreted streptokinase activity reduction – plasminogen activation absorbance, OD405, dose response (AID 1914); type: functional, Streptococcus pyogenes M1 GAS;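 also: secreted streptokinase activity via plasminogen activation per viability signal from cell pellet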
T2 sequence (P10520 whole entry): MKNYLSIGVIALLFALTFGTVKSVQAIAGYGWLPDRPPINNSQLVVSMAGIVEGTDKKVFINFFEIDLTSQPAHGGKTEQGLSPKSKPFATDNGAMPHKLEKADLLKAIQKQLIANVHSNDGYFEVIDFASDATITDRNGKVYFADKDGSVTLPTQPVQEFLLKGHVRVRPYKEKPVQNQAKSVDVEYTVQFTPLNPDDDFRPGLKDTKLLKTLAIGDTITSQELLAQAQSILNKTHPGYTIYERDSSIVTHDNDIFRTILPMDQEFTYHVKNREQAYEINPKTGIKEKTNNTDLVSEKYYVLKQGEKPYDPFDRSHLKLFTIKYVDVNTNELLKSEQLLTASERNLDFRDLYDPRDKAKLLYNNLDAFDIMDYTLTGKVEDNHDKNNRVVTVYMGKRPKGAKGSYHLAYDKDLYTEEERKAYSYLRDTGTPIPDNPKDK

[5] = molecular target: T3, Sentrin-specific protease 7 (Homo sapiens, UniProt Q9BQF6); type: functional;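 also: Luminescence-based dose-response confirmation of ultra-high-throughput screening hits, measuring inhibition of SENP7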
T3 sequence (Q9BQF6 whole entry): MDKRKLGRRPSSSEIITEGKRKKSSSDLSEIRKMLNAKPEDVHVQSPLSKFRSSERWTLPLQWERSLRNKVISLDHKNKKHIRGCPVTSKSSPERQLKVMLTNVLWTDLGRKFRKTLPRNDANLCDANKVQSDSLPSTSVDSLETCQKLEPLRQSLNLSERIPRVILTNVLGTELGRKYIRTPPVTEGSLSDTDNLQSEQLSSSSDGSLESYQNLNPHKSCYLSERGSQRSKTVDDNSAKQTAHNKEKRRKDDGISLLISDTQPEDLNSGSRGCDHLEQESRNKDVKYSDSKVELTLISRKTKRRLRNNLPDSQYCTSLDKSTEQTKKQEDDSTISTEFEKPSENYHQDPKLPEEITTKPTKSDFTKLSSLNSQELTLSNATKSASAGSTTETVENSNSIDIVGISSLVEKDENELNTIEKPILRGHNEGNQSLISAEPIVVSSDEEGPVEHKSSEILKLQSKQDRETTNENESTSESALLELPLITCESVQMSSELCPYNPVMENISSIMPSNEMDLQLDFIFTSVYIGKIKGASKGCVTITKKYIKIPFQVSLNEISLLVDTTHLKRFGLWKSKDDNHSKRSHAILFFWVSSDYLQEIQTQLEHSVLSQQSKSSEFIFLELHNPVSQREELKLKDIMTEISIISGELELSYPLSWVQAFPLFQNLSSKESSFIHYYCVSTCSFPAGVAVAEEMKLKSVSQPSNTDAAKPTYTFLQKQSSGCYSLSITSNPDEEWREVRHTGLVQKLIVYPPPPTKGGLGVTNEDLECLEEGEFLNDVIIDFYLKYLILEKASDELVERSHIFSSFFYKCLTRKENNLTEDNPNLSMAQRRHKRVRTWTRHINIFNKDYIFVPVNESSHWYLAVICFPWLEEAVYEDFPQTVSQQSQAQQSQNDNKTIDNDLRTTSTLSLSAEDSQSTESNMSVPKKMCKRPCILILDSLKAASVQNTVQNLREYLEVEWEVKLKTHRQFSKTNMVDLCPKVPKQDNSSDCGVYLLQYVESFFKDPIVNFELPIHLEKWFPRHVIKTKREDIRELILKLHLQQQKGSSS

[6] = molecular target: T4, Sentrin-specific protease 8 (Homo sapiens, UniProt Q96LD8); type: functional;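 also: luminescence read-out of SENP8 inhibition, dose-response confirmation following an ultra-high-throughput screen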
T4 sequence (Q96LD8 whole entry): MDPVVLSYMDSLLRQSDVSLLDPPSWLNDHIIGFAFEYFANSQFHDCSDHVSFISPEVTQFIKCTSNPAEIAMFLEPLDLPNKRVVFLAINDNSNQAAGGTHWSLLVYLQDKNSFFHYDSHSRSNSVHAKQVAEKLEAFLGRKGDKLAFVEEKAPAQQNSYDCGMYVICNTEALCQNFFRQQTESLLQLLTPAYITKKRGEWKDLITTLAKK

[7] = molecular target: T5, Sentrin-specific protease 6 (Homo sapiens, UniProt Q9GZR1); type: functional;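 also: Luminescence-based dose-response confirmatory assay of SENP6 inhibition, following up an ultra-high-throughput screen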
T5 sequence (Q9GZR1 whole entry): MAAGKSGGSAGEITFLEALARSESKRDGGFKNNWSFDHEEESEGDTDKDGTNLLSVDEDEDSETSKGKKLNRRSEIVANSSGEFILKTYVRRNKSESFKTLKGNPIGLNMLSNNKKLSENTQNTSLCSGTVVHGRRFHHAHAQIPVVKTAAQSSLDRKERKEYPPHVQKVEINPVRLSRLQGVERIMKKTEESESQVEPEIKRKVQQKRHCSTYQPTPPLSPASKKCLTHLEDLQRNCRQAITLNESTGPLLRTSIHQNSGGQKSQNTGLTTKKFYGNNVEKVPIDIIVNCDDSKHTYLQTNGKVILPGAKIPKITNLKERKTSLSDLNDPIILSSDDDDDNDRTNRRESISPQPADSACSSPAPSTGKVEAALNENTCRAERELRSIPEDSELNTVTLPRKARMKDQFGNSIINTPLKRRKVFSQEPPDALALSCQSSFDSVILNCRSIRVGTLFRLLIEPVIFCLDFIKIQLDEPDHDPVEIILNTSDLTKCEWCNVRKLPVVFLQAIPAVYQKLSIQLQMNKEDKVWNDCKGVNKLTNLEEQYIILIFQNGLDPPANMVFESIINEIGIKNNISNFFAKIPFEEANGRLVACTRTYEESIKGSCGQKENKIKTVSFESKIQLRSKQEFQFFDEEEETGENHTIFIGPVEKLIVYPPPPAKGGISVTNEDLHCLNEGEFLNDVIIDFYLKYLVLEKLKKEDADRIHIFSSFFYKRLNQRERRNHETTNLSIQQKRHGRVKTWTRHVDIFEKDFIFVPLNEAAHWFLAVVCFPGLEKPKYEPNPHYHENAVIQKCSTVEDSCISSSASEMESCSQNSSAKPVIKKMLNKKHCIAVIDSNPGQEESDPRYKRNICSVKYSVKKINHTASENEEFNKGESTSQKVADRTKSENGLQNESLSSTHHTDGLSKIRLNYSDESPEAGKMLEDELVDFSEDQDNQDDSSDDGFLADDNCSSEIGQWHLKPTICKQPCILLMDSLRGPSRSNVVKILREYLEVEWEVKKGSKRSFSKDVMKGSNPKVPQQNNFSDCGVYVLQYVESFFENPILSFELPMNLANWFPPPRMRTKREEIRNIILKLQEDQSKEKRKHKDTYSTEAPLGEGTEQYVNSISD

[8] = molecular target: T6, Caspase-3 (Homo sapiens, UniProt P42574); type: functional;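 also: Dose-response selectivity test against caspase-3 for candidate inhibitors of sentrin-specific proteases (SENPs)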
T6 sequence (P42574 whole entry): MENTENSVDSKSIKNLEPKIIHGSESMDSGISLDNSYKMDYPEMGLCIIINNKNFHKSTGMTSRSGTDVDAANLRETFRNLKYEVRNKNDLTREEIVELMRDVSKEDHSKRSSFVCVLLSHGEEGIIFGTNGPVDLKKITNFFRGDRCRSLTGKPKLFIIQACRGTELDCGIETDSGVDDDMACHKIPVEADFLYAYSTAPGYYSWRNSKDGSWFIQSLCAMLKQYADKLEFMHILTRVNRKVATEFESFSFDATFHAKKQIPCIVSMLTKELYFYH

[9] = test system: Streptococcus sp. 'group A'; test: Streptococcus pyogenes SK(-)GAS viability under kanamycin – luminescence, BacTiterGlo, confirmation, counter-screen for streptokinase expression inhibitor project, dose response (AID 1900); type: functional, organism-based
[10] = non-specific 3'UTR reporter inhibition in Clone20-Shn3RL – cell-based, Renilla luciferase, cherry-picked, counter-screen for Shn3 inhibitor project, dose response (AID 624133); type: functional
[11] = reduction of Shn3 3'UTR-driven luciferase in osteoblasts – cell-based, Clone20 osteoblasts, firefly luciferase, cherry-picked, dose response (AID 624132); type: functional;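 also: firefly luciferase luminescence from reporter carrying the Shn3 3'UTR in osteoblasts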
[12] = loss of viability in HepG2 cells – cell-based, CellTiter-Glo, cherry-picked, cytotoxicity control for Shn3 inhibitor project, dose response (AID 624134); type: functional
[13] = test system: INS1; test: INS-1E survival protection against cytokine death – cell-based, luminescence, retest, dose response (AID 449756); type: functional; conditions: Rattus norvegicus;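 also: cell death triggered by IL-1 beta plus TNF-alpha plus IFN-gamma mixture; protective hits raise ATP signal compared with cytokine alone wells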
[14] = molecular target: Protein Wnt-3a (Mus musculus, UniProt P27467); test: antagonism of Wnt3a pathway luciferase reporter – Wnt-LIGHT cells, luminescence, selectivity assay for Gli-SUFU antagonist project, dose response (AID 651570); type: functional; conditions: read-out: IC50_Mean;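 also: Wnt-LIGHT reporter cells stimulated with conditioned medium from Wnt3a-producing cells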
[15] = Fluorescence-based cell-based high throughput dose response assay for inhibitors of the interaction of nucleotide-binding oligomerization domain containing 2 (NOD2) and the receptor-interacting serine-threonine kinase 2 (RIPK2).; type: functional; conditions: Homo sapiens
[16] = molecular target: Adenosylmethionine-8-amino-7-oxononanoate aminotransferase (Mycobacterium tuberculosis, UniProt P9WQ81); test: Mycobacterium tuberculosis BioA enzyme inhibitor Measured in Biochemical System Using Plate Reader - 2163-02_Inhibitor_Dose_CherryPick_Activity.; type: functional, Mycobacterium tuberculosis UT205
Adenosylmethionine-8-amino-7-oxononanoate aminotransferase, sequence (P9WQ81 whole entry): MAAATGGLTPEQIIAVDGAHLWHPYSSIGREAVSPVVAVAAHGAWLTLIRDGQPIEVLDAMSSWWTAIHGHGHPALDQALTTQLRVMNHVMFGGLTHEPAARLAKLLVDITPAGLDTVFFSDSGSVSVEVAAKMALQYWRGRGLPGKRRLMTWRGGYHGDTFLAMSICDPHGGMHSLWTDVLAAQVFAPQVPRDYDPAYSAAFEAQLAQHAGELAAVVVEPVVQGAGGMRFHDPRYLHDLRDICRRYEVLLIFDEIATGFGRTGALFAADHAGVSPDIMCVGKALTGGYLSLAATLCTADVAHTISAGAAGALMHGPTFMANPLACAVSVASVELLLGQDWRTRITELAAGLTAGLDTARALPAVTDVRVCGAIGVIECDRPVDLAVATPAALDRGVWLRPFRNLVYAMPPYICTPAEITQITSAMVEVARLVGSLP

Protein Wnt-3a, sequence (P27467 whole entry, the tested form may be a part): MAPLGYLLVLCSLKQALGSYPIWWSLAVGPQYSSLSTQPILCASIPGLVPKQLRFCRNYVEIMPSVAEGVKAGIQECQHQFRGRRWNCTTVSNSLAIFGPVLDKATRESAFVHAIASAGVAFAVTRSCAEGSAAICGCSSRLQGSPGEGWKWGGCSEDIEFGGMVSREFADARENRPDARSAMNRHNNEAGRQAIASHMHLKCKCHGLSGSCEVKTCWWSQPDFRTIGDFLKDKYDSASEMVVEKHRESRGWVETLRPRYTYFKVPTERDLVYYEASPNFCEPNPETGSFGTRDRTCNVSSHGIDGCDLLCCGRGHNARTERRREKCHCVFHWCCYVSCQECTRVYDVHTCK
T1 sequence (P11940 whole entry, the tested form may be a part): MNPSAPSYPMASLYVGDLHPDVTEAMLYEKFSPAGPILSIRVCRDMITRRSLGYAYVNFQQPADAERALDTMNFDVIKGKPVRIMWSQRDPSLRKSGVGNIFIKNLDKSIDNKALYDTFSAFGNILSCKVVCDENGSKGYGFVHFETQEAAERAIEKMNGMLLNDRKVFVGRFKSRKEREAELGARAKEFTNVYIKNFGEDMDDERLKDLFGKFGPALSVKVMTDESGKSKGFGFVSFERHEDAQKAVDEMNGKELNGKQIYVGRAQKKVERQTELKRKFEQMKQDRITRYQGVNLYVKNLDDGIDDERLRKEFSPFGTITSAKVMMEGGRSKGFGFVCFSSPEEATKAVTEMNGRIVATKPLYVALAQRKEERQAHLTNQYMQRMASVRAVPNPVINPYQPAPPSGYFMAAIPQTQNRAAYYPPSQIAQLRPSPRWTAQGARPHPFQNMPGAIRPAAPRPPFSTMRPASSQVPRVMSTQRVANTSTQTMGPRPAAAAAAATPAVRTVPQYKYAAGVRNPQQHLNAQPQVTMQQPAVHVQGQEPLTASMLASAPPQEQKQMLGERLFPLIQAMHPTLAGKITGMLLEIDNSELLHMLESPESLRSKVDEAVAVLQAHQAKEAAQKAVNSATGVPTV

For `C=CCNC(=S)N/N=C(\C)c1cccc(OC)c1`, the IC50 [1] was > 66 µM (inactive) and the IC50 [2] was > 66 µM (inactive).
In the case of `Cc1n[nH]c(Nc2ccc(C(C)C)cc2)c1[N+](=O)[O-]`, the EC50 [3] is reported as > 150 µM (not active), the EC50 [4] is reported as 22.3 µM (active) and the IC50 [5] is reported as 9.42 µM (active). For the same compound, the IC50 [6] was > 100 µM (inactive), the IC50 [7] was 10.1 µM (active) and the IC50 [8] was 36 µM (active). For the same compound, the EC50 [9] was 30.9 µM (active).
For `O=C(c1cc2sccc2n1Cc1ccc(F)cc1)N1CCN(c2nc3ccccc3s2)CC1`, the AC50 [10] was 1.71 µM (active), the AC50 [11] was 1.36 µM (active) and the AC50 [12] was 3.48 µM (active). For the same compound, the AC50 [13] was 3.42 µM (active) and the IC50 [14] was 5.49 µM (active).
For `CCOC(=O)[C@]12Cc3c(cc(OC)c(OC)c3OC)[C@H]1N(C1CCCCC1)C(=O)c1cc(OC)ccc12`, the IC50 [15] was 2.36 µM (active).
For `CCOC(=O)C1(CCc2ccccc2)CCN(C(=O)CN2CCOC2=O)CC1`, the AC50 [16] was 3.89 µM (active).
With `CCOc1ccc(NS(=O)(=O)c2cccc(C(=O)N3CCN(C/C=C/c4ccccc4)CC3)c2)cc1` the IC50 [14] was 22.7 µM (inactive).
